Here are results for 38 molecules from patent US20250049798A1, “WEE1 PROTEIN KINASE DEGRADATION AGENT AND USE THEREOF” (HANGZHOU GLUBIO PHARMACEUTICAL CO. LTD., priority 2021, published 2025).

Read-outs that look alike come from different tables or passages of the source.

In this assay the target is HiBiT tagged Wee1 (Homo sapiens, UniProt P30291). Description: Wee1 protein degradation assay (HiBiT assay). In kind it is cell-based.
Where [1] appears, read: engineered HT-1080 cells, 20 hours.
The mark [2] stands for this setting: engineered HT-1080 cells, 20 hours, maximum percentage of Wee1 degradation, read-out: HiBiT Wee1: Dmax.

HiBiT tagged Wee1, sequence (P30291 whole entry): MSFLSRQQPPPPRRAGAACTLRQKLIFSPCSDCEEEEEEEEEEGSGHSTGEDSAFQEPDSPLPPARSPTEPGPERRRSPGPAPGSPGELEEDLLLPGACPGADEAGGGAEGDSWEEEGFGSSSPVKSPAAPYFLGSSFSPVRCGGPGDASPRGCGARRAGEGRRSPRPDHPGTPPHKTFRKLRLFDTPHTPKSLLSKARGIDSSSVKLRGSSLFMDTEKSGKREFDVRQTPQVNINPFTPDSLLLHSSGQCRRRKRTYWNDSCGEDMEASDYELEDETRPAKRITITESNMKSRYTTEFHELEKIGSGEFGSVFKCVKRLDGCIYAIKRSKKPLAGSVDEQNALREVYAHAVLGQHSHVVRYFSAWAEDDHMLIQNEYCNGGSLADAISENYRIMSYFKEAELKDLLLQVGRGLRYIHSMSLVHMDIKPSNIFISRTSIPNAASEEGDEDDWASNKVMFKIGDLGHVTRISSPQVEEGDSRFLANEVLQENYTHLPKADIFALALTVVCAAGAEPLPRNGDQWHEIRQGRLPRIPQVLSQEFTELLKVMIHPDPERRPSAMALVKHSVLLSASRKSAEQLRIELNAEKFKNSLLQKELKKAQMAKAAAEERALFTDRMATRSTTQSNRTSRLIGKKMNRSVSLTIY

Usually DC50 stands for the concentration giving 50% degradation. As a reminder, the Dmax is the largest share of the target that was removed. As for `C=CCn1c(=O)c2cnc(Nc3ccc(N4CCC(CN5CCC(c6cccc7c6n(C)c(=O)n7C6CCC(=O)NC6=O)CC5)CC4)cc3)nc2n1-c1ccc2c(n1)[C@](O)(CC)CC2` (stereo partly shown) [Compound 53], under setting [1], the DC50 was over 1000 nM. Under setting [2], the Dmax is under 50%.
For `C=CCn1c(=O)c2cnc(Nc3ccc(N4CCN(CC5CCN(Cc6cccc7c6n(C)c(=O)n7C6CCC(=O)NC6=O)CC5)CC4)cc3)nc2n1-c1cccc(C(C)(C)O)n1` (stereo not shown) [Compound 64], in that order: under 100 nM and 50 to 75%.
On to `C=CCn1c(=O)c2cnc(Nc3ccc(N4CCC(CC(=O)Nc5cccc6c(N7CCC(=O)NC7=O)nn(C)c56)CC4)cc3)nc2n1-c1ccc2c(n1)[C@@](O)(CC)CC2` [Compound 202], for which the DC50 under setting [1] is over 1000 nM. Under setting [2], the Dmax is under 50%.
The like results for `C=CCn1c(=O)c2cnc(Nc3ccc(N4CCC(CN5CCN(c6cc7c(cc6F)C(=O)N(C6CCC(=O)NC6=O)C7=O)CC5)CC4)cc3)nc2n1-c1cccc(C(C)(C)O)n1` (stereo not shown) [Compound 57] were, in that order, under 100 nM and 50 to 75%.
For the molecule `C=CCn1c(=O)c2cnc(Nc3ccc(C4CCN(C5CCN(c6cccc7c6n(C)c(=O)n7C6CCC(=O)NC6=O)CC5)CC4)cc3)nc2n1-c1cccc(C(C)(C)O)n1` (stereo not shown) [Compound 99], under setting [1], the 50% degradation concentration (DC50) was under 100 nM. Under setting [2], the Dmax lay in the range of 50 to 75%.
`C=CCn1c(=O)c2cnc(Nc3ccc(N4CCC(N5CCN(c6ccc7c(c6)C(=O)N(C6CCC(=O)NC6=O)C7=O)CC5)CC4)cc3)nc2n1-c1cccc(C(C)(C)O)n1` (stereo not shown) [Compound 77]: the DC50 under setting [1] is under 100 nM. The Dmax under setting [2] lay within 50 to 75%.
As for `C=CCn1c(=O)c2cnc(Nc3ccc(N4CCC(N5CC6(CN(c7ccc8c(N9CCC(=O)NC9=O)nn(C)c8c7)C6)C5)C(F)(F)C4)cc3)nc2n1-c1ccc2c(n1)[C@@](O)(CC)CC2` (stereo partly shown) [Compound 178], the DC50 under setting [1] was under 100 nM. The Dmax under setting [2] was in the range of 50 to 75%.
For `C=CCn1c(=O)c2cnc(Nc3ccc(N4CCN(CC5CCN(c6ccc(NC7CCC(=O)NC7=O)nc6)CC5)CC4)cc3)nc2n1-c1ccc2c(n1)[C@@](O)(CC)CC2` (stereo partly shown) [Compound 203], the DC50 under setting [1] is under 100 nM. For the same molecule, the Dmax under setting [2] lay in the range of 50 to 75%.
For `C=CCn1c(=O)c2cnc(Nc3ccc(N4CCN(CC5CCN(c6ccc(NC7CCC(=O)NC7=O)cc6F)CC5)CC4)cc3)nc2n1-c1ccc2c(n1)[C@](C)(O)CC2` (stereo partly shown) [Compound 112], in that order: under 100 nM and over 75%.
The like results for `C=CCn1c(=O)c2cnc(Nc3ccc(N4CCN(CC5CN(c6ccc7c(c6)C(=O)N(C6CCC(=O)NC6=O)C7=O)C5)CC4)c(C)c3)nc2n1-c1cccc(C(C)(C)O)n1` (stereo not shown) [Compound 12] were, in that order, under 100 nM and 50 to 75%.
In turn, `C=CCn1c(=O)c2cnc(Nc3ccc(N4CCN(CC5CCN(c6ccc7c(c6)CN(C6CCC(=O)NC6=O)C7=O)CC5)CC4)cc3)nc2n1-c1cccc(C(C)(C)O)n1` (stereo not shown) [Compound 25] gave a 50% degradation concentration (DC50) under setting [1] of under 100 nM. In addition, under setting [2], the maximal degradation (Dmax) was in the range of 50 to 75%.
The like results for `C=CCn1c(=O)c2cnc(Nc3ccc(N4CCC(CN5CCN(c6ccc(NC7CCC(=O)NC7=O)cc6F)CC5)CC4)c(C)c3)nc2n1-c1ccc2c(n1)[C@@](C)(O)CC2` (stereo partly shown) [Compound 133] were, in that order, under 100 nM and over 75%.
For the molecule `C=CCn1c(=O)c2cnc(Nc3ccc4c(c3)CN(CCCCCCNc3ccc5c(c3)C(=O)N(C3CCC(=O)NC3=O)C5=O)CC4)nc2n1-c1cccc(C(C)(C)O)n1` (stereo not shown) [Compound 22], for the setting “HT-1080, read-out: HiBiT Wee1: Dmax”, the Dmax was under 50%. Under setting [1], this molecule came in with a half-maximal degradation concentration (DC50) of over 1000 nM.
In the case of `O=C1CCC(N2C(=O)c3ccc(N4CCC(CN5CCc6cc(Nc7ncc8c(=O)n(-c9c(Cl)cccc9Cl)c9nccn9c8n7)ccc6C5)CC4)cc3C2=O)C(=O)N1` (stereo not shown) [Compound 1], the DC50 under setting [1] was over 1000 nM. Besides, the maximal degradation (Dmax) under setting [2] was under 50%.
For `C=CCn1c(=O)c2cnc(Nc3ccc(N4CCN(C(=O)CC5(O)CCN(c6ccc(NC7CCC(=O)NC7=O)cc6F)CC5)CC4)cc3)nc2n1-c1ccc2c(n1)[C@@](O)(CC)CC2` (stereo partly shown) [Compound 159], the DC50 under setting [1] is under 100 nM. Further, the Dmax under setting [2] fell in the range of 50 to 75%.
In turn, `C=CCn1c(=O)c2cnc(Nc3ccc(C4CCN(CC5CCN(c6ccc(N7CCC(=O)NC7=O)cc6)CC5)CC4)cc3)nc2n1-c1cccc(C(C)(C)O)n1` [Compound 146] yielded a DC50 under setting [1] of over 1000 nM. Further, under setting [2], the Dmax is under 50%.
In the case of `C=CCn1c(=O)c2cnc(Nc3ccc4c(c3)CN(CCCNc3ccc5c(c3)C(=O)N(C3CCC(=O)NC3=O)C5=O)CC4)nc2n1-c1cccc(C(C)(C)O)n1` (stereo not shown) [Compound 23], under setting [1], the half-maximal degradation concentration (DC50) was over 1000 nM. Besides, the maximal degradation (Dmax) under setting [2] was under 50%.
For `C=CCn1c(=O)c2cnc(Nc3ccc(N4CCC(CN5CCN(c6ccc(NC7CCC(=O)NC7=O)cc6F)CC5)CC4)cc3)nc2n1-c1ccc2c(n1)[C@](C)(O)CC2` (single isomer, unassigned) [Compound 120], in that order: under 100 nM and 50 to 75%.
With `Cc1cc(Nc2ncc3c(n2)N(C)CN(c2c(Cl)cccc2Cl)C3=O)ccc1N1CCC(CN2CCN(c3ccc4c(c3)CN(C3CCC(=O)NC3=O)C4=O)CC2)CC1` (stereo not shown) [Compound 34], the DC50 under setting [1] is over 1000 nM. In addition, under setting [2], the maximal degradation (Dmax) was under 50%.
Molecule `C=CCn1c(=O)c2cnc(Nc3ccc(N4CCN(CCC5CCN(C(=O)c6ccc(OC)c(N7CCC(=O)NC7=O)c6)CC5)CC4)cc3)nc2n1-c1cccc(C(C)(C)O)n1` [Compound 29] came in with a DC50 under setting [1] of over 1000 nM. For the same molecule, the maximal degradation (Dmax) under setting [2] is under 50%.
For `C=CCn1c(=O)c2cnc(Nc3ccc(N4CCN(CC5CCN(c6ccc(NC7CCC(=O)NC7=O)cn6)CC5)CC4)cc3)nc2n1-c1ccc2c(n1)[C@@](O)(CC)CC2` (stereo partly shown) [Compound 136], in that order: under 100 nM and over 75%.
With `C=CCn1c(=O)c2cnc(Nc3ccc(N4CCC(CN5CCN(c6ccc7c(N8CCC(=O)NC8=O)nn(C)c7c6)CC5)CC4)cc3)nc2n1-c1ccc2c(n1)[C@@](C)(O)CC2` [Compound 126], the half-maximal degradation concentration (DC50) under setting [1] was under 100 nM. Also, the Dmax under setting [2] fell in the range of 50 to 75%.
For `C=CCn1c(=O)c2cnc(Nc3ccc(N4CCN(CC5CCN(c6ccc(NC7CCC(=O)NC7=O)cc6F)CC5)CC4)cc3)nc2n1-c1ccc2c(n1)[C@](C)(O)CCC2` (single isomer, unassigned) [Compound 190], in that order: under 100 nM and over 75%.
The like results for `Cc1cc(Nc2ncc3c(n2)N(C)CN(c2c(Cl)cccc2Cl)C3=O)ccc1N1CCC(CN2CCN(c3cccc4c3C(=O)N(C3CCC(=O)NC3=O)C4=O)CC2)CC1` (stereo not shown) [Compound 31] were, in that order, over 1000 nM and under 50%.
Take `C=CCn1c(=O)c2cnc(Nc3ccc(N4CCN(CCCCc5cccc6c5CN(C5CCC(=O)NC5=O)C6=O)CC4)cc3)nc2n1-c1cccc(C(C)(C)O)n1` (stereo not shown) [Compound 50]: under setting [1], the DC50 was under 100 nM. In addition, the Dmax under setting [2] lay within 50 to 75%.
For `C=CCn1c(=O)c2cnc(Nc3ccc(N4CCN(CC5CCN(c6cccc7c(N8CCC(=O)NC8=O)nn(C)c67)CC5)CC4)cc3)nc2n1-c1ccc2c(n1)[C@@](O)(CC)CC2` [Compound 124], in that order: under 100 nM and 50 to 75%.
For `C=CCn1c(=O)c2cnc(Nc3ccc(N4CCN(C5CCN(c6ccc(NC7CCC(=O)NC7=O)cc6F)CC5)CC4)cc3)nc2n1-c1ccc2c(n1)[C@@](O)(CC)CC2` (stereo partly shown) [Compound 155], in that order: under 100 nM and over 75%.
For `C=CCn1c(=O)c2cnc(Nc3ccc(N4CCC(N5CCN(c6cc7c(cc6F)C(=O)N(C6CCC(=O)NC6=O)C7=O)CC5)CC4)cc3)nc2n1-c1cccc(C(C)(C)O)n1` (stereo not shown) [Compound 78], in that order: 100 to 1000 nM and 50 to 75%.
In turn, `C=CCn1c(=O)c2cnc(Nc3ccc(N4CCN(CC5CCN(c6ccc7c(N8CCC(=O)NC8=O)nn(C)c7c6)CC5)CC4)c(C)c3)nc2n1-c1ccc2c(n1)[C@@](C)(O)CC2` [Compound 138] had a DC50 under setting [1] of under 100 nM. Further, the Dmax under setting [2] lay within 50 to 75%.
As for `O=C1CCC(Nc2ccc(N3CCN(CC4CCN(c5ccc(Nc6ncc7c(=O)n(-c8c(Cl)cccc8Cl)c8nccn8c7n6)cc5)CC4)CC3)c(F)c2)C(=O)N1` (stereo not shown) [Compound 94], under setting [1], the DC50 was under 100 nM. Further, under setting [2], the Dmax was over 75%.
As for `C=CCn1c(=O)c2cnc(Nc3ccc(N4CCN(C5CC6(C5)CN(c5ccc7c(N8CCC(=O)NC8=O)nn(C)c7c5)C6)CC4)cc3)nc2n1-c1ccc2c(n1)[C@@](O)(CC)CC2` [Compound 170], the DC50 under setting [1] was under 100 nM. Under setting [2], the maximal degradation (Dmax) is over 75%.
Molecule `C=CCn1c(=O)c2cnc(Nc3ccc(N4CCN(CC5CCN(c6ccc(NC7CCC(=O)NC7=O)cc6F)CC5)CC4)c(C)c3)nc2n1-c1ccc2c(n1)[C@@](O)(CC)CC2` (stereo partly shown) [Compound 128] had a half-maximal degradation concentration (DC50) under setting [1] of under 100 nM. Moreover, under setting [2], the Dmax was over 75%.
The molecule `C=CCn1c(=O)c2cnc(Nc3ccc(N4CCN(CC5CCN(c6ccc(NC7CCC(=O)NC7=O)cc6F)CC5)CC4)cc3)nc2n1-c1cccc(OC)n1` (stereo not shown) [Compound 205] registered a DC50 under setting [1] of under 100 nM. For the same molecule, the Dmax under setting [2] is over 75%.
Molecule `C=CCn1c(=O)c2cnc(Nc3ccc(N4CCN(CCNc5ccc6c(c5)C(=O)N(C5CCC(=O)NC5=O)C6=O)CC4)cc3)nc2n1-c1cccc(C(C)(C)O)n1` (stereo not shown) [Compound 11] returned a 50% degradation concentration (DC50) under setting [1] of under 100 nM. Moreover, under setting [2], the greatest degradation seen (Dmax) was 50 to 75%.
As for `C=CCn1c(=O)c2cnc(Nc3ccc(N4CCN(CC5CCN(c6ccc(NC7CCC(=O)NC7=O)cc6F)CC5)CC4)c(C)c3)nc2n1-c1ccc2c(n1)[C@](C)(O)CC2` (stereo partly shown) [Compound 130], the DC50 under setting [1] is under 100 nM. Further, under setting [2], the maximal degradation (Dmax) is over 75%.
The like results for `C=CCn1c(=O)c2cnc(Nc3ccc(N4CCN(CC5CCN(c6ccc(NC7CCC(=O)NC7=O)cc6F)CC5)CC4)cc3)nc2n1-c1ccc2c(n1)[C@@](C)(O)CC2` (stereo partly shown) [Compound 113] were, in that order, under 100 nM and over 75%.
Regarding `C=CCn1c(=O)c2cnc(Nc3ccc(N4CCN(CC5CCN(c6ccc(NC7CCC(=O)NC7=O)cc6Cl)CC5)CC4)cc3)nc2n1-c1cccc(C(C)(C)O)n1` (stereo not shown) [Compound 88], the DC50 under setting [1] is under 100 nM. Besides, the maximal degradation (Dmax) under setting [2] is over 75%.
The like results for `O=C1CCC(Nc2ccc(N3CCC(CN4CCN(c5ccc(Nc6ncc7c(=O)n(-c8c(Cl)cccc8Cl)c8nccn8c7n6)cc5)CC4)CC3)c(F)c2)C(=O)N1` (stereo not shown) [Compound 83] were, in that order, under 100 nM and over 75%.
